Data reported in patent publication US11167015B2, “Arginine and its use as a T cell modulator” (INSTITUTE FOR RESEARCH IN BIOMEDICINE, priority 2016, dated 2021).

How the values were obtained:
[1] = tested on: human naïve CD4+ T cells; assay: CCR7 expression by flow cytometry; format: cell-based; conditions: day 10 after activation, L-arginine supplemented vs control cultures
Description: FIG. 4. L-arginine limits human T cell differentiation and endows cells with a high survival capacity in vitro. (A, B) Human naïve CD4^+ T cells were activated in L-Arg medium or Ctrl medium in the presence of 10 ng/ml IL-12. IFN-γ was quantified in culture supernatants after 5 days (A) or after re-activation for 5 h with PMA/Ionomycin (B); n=9 from three donors. (C) Naïve CD4^+ T cells were labeled with CellTrace Violet (CTV) and activated in L-Arg medium or Ctrl medium. On day 10, proliferating CTV^lo T cells were stained with an antibody to CCR7 and analyzed by flow cytometry; n=15 from three donors. (D) Naïve CD4^+ T cells were activated for 5 days in L-Arg or Ctrl medium in the presence of exogenous IL-2, washed extensively and cultured in Ctrl medium in the absence of IL-2. Shown is the percentage of living T cells as determined by Annexin V staining at different time points after IL-2 withdrawal. One representative experiment out of three performed. (E) Same experiment as in (D). Shown is the difference of living activated CD4^+ and CD8^+ T cells 5 days after withdrawal of IL-2; n=46, from sixteen donors (CD4^+ T cells); n=13, from four donors (CD8^+ T cells). […] (K) Effect of norNOHA and BEC on proliferation of CTV-labeled naïve T cells measured 72 h after activation. *p<0.05, **p<0.01, ***p<0.001, ****p<0.0001 (Student's t-test).

[2] = tested on: human CD4+ T cell clones; assay: Survival experiment with CRISPR/Cas9 gene knockout T cell clones; format: cell-based
Description: Naïve CD4 T cells were activated with plate-bound CD3 and CD28 antibodies. 48 h after activation IL-2 was added to culture media (500 U ml^−1). After a further 3 days of culturing, cells were washed, counted and equal cell numbers were plated in medium devoid of IL-2. The withdrawal medium was no longer supplemented with e.g. L-arginine. Cell viability was assessed with annexin V.
Two to four short guide RNAs (sgRNAs) (Table 1) per gene were designed using the online tool provided by the Zhang laboratory (tools.genome-engineering.org). Oligonucleotide pairs with BsmBI-compatible overhangs were annealed and cloned into the lentiviral vector lentiCRISPR v2 (Addgene plasmid #52961) (Sanjana et al., 2014). […]
To screen for clones with disrupted target genes, individual clones were lysed with sample buffer containing 80 mM Tris pH 6.8, 10.5% glycerol, 2% SDS and 0.00004% Bromophenol blue. Lysate of 100,000 cells was separated by SDS-PAGE followed, blotted onto PVDF membranes and analyzed with antibodies to target proteins, Baz1B (Abeam, ab50850), PSIP1 (Bethyl, A300-848A), DDX17 (Abeam, ab180190), PTPN6 (Santa Cruz, sc-287) or TSN (Sigma, HPA059561). […] To screen for clones with disrupted B2M, single cell clones were stained with an antibody to MHC-1 (eBioscience, HLA-ABC-FITC) and analyzed by flow cytometry.

How did the “fraction of proliferating CCR7+ T cells” value [1] turn out when `N=C(N)NCCC[C@H](N)C(=O)O` [L-arginine] was run?
The value was “higher fraction”.

And the “L-arginine's beneficial effect on T cell survival in BAZ1B, PSIP1 and TSN knockout clones” value ([2]; knockout of BAZ1B, PSIP1 and TSN)?
The value was “significantly reduced”.

What about the “effect of L-arginine on T cell survival in PTPN6 (Shp-1) or B2M knockout clones” value ([2]; knockout of PTPN6 (Shp-1) or B2M) of the same compound?
The value was “did not alter”.
